Data from US20250333683A1, “A METHOD AND SYSTEM FOR SIMULATING STEM CELL DIFFERENTIATION DYNAMICS” (CellVoyant Technologies Limited, priority 2024, published 2025).

Tested on: human pluripotent cells (hPCs)
Assay: Observed ground truth mesoderm differentiation (Brachyury immunofluorescence)
Type: cell-based
Procedure: Stem cell differentiation: To differentiate cells into cardiac mesoderm cells, cardiomyocytes and/or endothelial intermediate, protocol described in Giacomelli et al., [1] was adapted.
Briefly, human pluripotent cells (hPCs) were seeded, as a monolayer culture, into 96-well imaging plate in BPLE basal media for twenty-four hours, with the bovine serum albumin (BSA) polyvinylalcohol essential lipids (BPLE) basal media being supplemented with 20 ng/ml of ActinvinA (Peprotech, 120-14E-2 μG), 20 ng/ml of BMP4 (Peprotech, 120-05ET-2 μG) and varying concentrations of CHIR99201 (Selleckchem, S1263). CHIR99021 was removed randomly after either 24 or 48 hours of differentiation, to determine the effect of CHIR99021 on mesoderm differentiation rates.
The day after, the primary antibody was washed out, and the cells were incubated with the fluorescence-conjugated secondary antibody (1:1000) for 1 hour at room temperature. DAPI solution was used to detect nuclei.
Ground truth for fate forecasting was inferred by using Cellpose to segment individual cell nuclei on the DAPI channel. A Multi-Otsu threshold was carried out on the Brachury channel to separate the images into foreground and background. The total number of nucleii detected was recorded and the two sets of masks were correlated to determine the proportion of cells that were positive for the immunofluorescence marker. […]

Cc1c[nH]c(-c2cnc(NCCNc3ccc(C#N)cn3)nc2-c2ccc(Cl)cc2Cl)n1 [CHIR99021]
observed ground truth proportion of cells acquiring the mesodermal cell fate (CHIR99021 0.93 μM, applied for 24 hours): very low proportion | observed ground truth amount of Brachury positive cells after removal of CHIR99021 (CHIR99021 1.93 μM, removed after 48 hours): decrease in the amount of Brachury positive cells
